In article PMC10108010, “Fluorogenic Granzyme A Substrates Enable Real‐Time Imaging of Adaptive Immune Cell Activity” (Angewandte Chemie (International Ed. in English), 2023):
Where a SMILES comes first, the peptide text is derived from it. The star is where a group is joined. NH(4-Me-phenyl) = Cc1ccc(N*)cc1; AMC = Cc1cc(=O)oc2cc(N*)ccc12; Cbz = O=C(OCc1ccccc1)*; X1 = Cc1ccc(S*)cc1; X2 = Cc1ccc(O*)cc1

Assays:
NK-92 cells = assay: Live-cell confocal microscopy of NK-92 cells; assay type: cell-based, human; settings: 3,4-dichloroisocoumarin 5 μM, 2 h prior to labeling with compound 9 (5 μM, 1 h)
Experimental: Figure S9. Brightfield and fluorescence confocal microscopy merged images of live NK-92 cells upon incubation with compound 9. Representative microscopy images from 3 independent experiments of live NK-92 cells upon incubation with […]
dichloroisocoumarin (5 µM) was used as a GzmA inhibitor for 2 h prior to labeling.
(§1) 5.0) prior to the enzyme assays.
(§2) All the tubes were incubated
(§3) NK- 92 cell inhibition and imaging. […]
(§4) Microsystems) and qualitatively analysed using Fiji.

[1] = tested on: active GzmA secreted by NK-92 cells; assay: Detection of active GzmA in supernatants of stimulated NK-92 cells; assay type: cell-based, human; settings: supernatants of stimulated NK-92 cells + compound 9
Source text: Encouraged by the high reactivity of compound 9, we evaluated its potential application to detect active GzmA secreted by immune cells. NK cell‐based therapies are regarded as potential anticancer treatments due to their ability to secrete granzymes to the extracellular space and cause cytotoxicity in cancer cells.[24] […] To test the utility of compound 9 to measure active GzmA in cell supernatants, we performed degranulation assays in human NK‐92 cells (e.g., a patient‐derived cell line that expresses higher levels of GzmA than healthy NK cells)[25] and also tested GzmA‐negative cells (e.g., HaCaT keratinocytes, Figure S8). NK‐92 cells were stimulated with […] and ionomycin (Figure 5).[26] Cell supernatants were collected and incubated with compound 9 for 1 h, followed by spectroscopic measurements. […] Previous reports indicate that granzyme activity can be detected inside NK‐92 cells[[11b]] and that granzymes can be found within activated immune cells due to intracellular granular leakage,[27] even though granzyme activity is known to be reduced in acidic granules. To study this observation, we performed Z‐stack live‐cell confocal microscopy in NK‐92 cells after incubation with compound 9.
as §1, §2, §3, §4

hGzmA = biological target: T1, hGzmA (Homo sapiens, UniProt P12544); assay: Inhibition by 3,4-dichloroisocoumarin of the fluorescence of compound 9 with hGzmA; assay type: biochemical; settings: 3,4-dichloroisocoumarin 100 μM, compound 9 20 μM, hGzmA 20 nM, Tris buffer (pH 8)
T1 construct: in the absence or presence of active recombinant hGzmA
T1 sequence (P12544 29-262): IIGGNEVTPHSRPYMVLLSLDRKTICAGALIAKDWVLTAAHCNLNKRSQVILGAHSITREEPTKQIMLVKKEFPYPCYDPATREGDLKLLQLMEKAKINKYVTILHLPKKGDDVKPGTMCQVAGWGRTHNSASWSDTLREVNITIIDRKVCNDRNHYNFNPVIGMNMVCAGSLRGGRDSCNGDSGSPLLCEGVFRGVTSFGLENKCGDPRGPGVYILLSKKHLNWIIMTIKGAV

[2] = Chemical stability in aqueous buffers by HPLC-MS (no enzyme); assay type: physicochemical; settings: for chemical stability at other pH (in words): basic and acid media
Experimental: Figure 2 Solid‐phase peptide synthesis (SPPS) of the sequence Ac‐IGNR‐OH (compound 1) and corresponding analogues containing spacers with different connectivities. The synthesis of compounds 1–4 is described in the Supporting Information. […] TEXT PRINTED IN THE PICTURE: 2 (ester): pH 4: < 5%; pH 7: < 5%; pH 10: < 5% | 3 (thioester): pH 4: 70%; pH 7: < 5%; pH 10: < 5% | 4 (amide): pH 4: > 95%; pH 7: > 95%; pH 10: > 95%
First, we synthesized a large batch (>400 mg) of Ac‐IGNR‐OH using standard protocols for the solid‐phase synthesis of fluorescent peptides[20] in polystyrene resin derivatized with a 2‐chlorotritylchloride linker (PS‐CTC). Next, we coupled the tetrapeptide Ac‐IGNR‐OH (compound 1, Figure 2) to different aryl groups to generate the isosteric ester, thioester and amide analogues (compounds 2, 3 and 4 respectively, Figure 2). After isolation of all compounds by semi‐preparative HPLC with purities >95 %, we analyzed their chemical stability in aqueous media in the absence of hGzmA. […] We also tested their chemical integrity at different pH values because GzmA can be stored in slightly acidic cytotoxic granules inside CTLs.[21]

[3] = Emission wavelength / spectral properties; assay type: physicochemical; settings: comparison of compound 9 and Z-FR-AMC
[4] = Tris buffer (pH 7.4), absence of hGzmA, HPLC-MS
[5] = pH 4, aqueous buffer, 2 h at 37 °C, HPLC-MS
[6] = pH 7, aqueous buffer, 2 h at 37 °C, HPLC-MS
[7] = pH 10, aqueous buffer, 2 h at 37 °C, HPLC-MS

Compound	chemical stability (in words) [2, 4]	stability (% by HPLC-MS) [2, 6] [%]	stability (% by HPLC-MS) [2, 7] [%]	stability (% by HPLC-MS) [2, 5] [%]	chemical stability at other pH (in words) ([2]; HPLC-MS, 2 h at 37 °C)	other results
O=c1oc(Cl)c(Cl)c2ccccc12 [3,4‐dichloroisocoumarin]	–	–	–	–	–	effect of inhibitor on intracellular fluorescence (in words) (NK-92 cells): reduced; effect of inhibitor on supernatant fluorescence (in words) [1]: blocked; decrease of the fluorescence signal (hGzmA): > 90%
CC[C@H](C)[C@H](NC(C)=O)C(=O)NCC(=O)N[C@@H](CC(N)=O)C(=O)N[C@@H](CCCNC(=N)N)C(=O)Nc1ccc(C)cc1 [compound 4] (Ac-IGNR-{NH(4-Me-phenyl)})	fully stable	> 95	> 95	> 95	stable in basic and acid media	purity after incubation ([2]; Tris buffer (pH 7.4), absence of hGzmA): > 95%
Cbz-Phe-Arg-{AMC}	–	–	–	–	–	emission wavelength [3]: 445 nm

The next lines start with results.

chemical stability (in words) [2, 4]	stability (% by HPLC-MS) [2, 6] [%]	stability (% by HPLC-MS) [2, 7] [%]	Compound	stability (% by HPLC-MS) [2, 5] [%]	chemical stability at other pH (in words) ([2]; HPLC-MS, 2 h at 37 °C)	other results
completely hydrolyzed	< 5	< 5	CC[C@H](C)[C@H](NC(C)=O)C(=O)NCC(=O)N[C@@H](CC(N)=O)C(=O)N[C@@H](CCCNC(=N)N)C(=O)Oc1ccc(C)cc1 [compound 2] (Ac-IGNR-X2)	< 5	–	–
completely hydrolyzed	< 5	< 5	CC[C@H](C)[C@H](NC(C)=O)C(=O)NCC(=O)N[C@@H](CC(N)=O)C(=O)N[C@@H](CCCNC(=N)N)C(=O)Sc1ccc(C)cc1 [compound 3] (Ac-IGNR-X1)	–	more stable than the carboxylic ester analogue 2 at acidic pH	remaining at 2 h [2, 5]: 70%
